Here are results for 39 molecules from the SangsterLogP compilation.

Data set [1] in a line: method code SF, from DOI: 10.1021/jm5017544, PMID: 25671691. The following applies: pH 7.4.
A short description of data set [2]: method code SF, from DOI: 10.1023/a:1015958526423, PMID: 2095573.
A short description of data set [3]: method code SF-GR, from DOI: 10.1016/s0022-3565(25)32611-x, PMID: 7230009.
Data set [4] can be described thus: method code SF-HPLC, from Bhosale, A.; Agrawal, G.; Mishra, P. (2004). Preparation and characterization of mutual prodrugs of ibuprofen. Indian Journal of Pharmaceutical Sciences, 66, 158-163. The settings on record: pH 1.2.
A short description of data set [5]: method code G-HPLC, from DOI: 10.1016/s0045-6535(97)00024-6.
The nature of data set [6]: method code SF, from PMID: 21667. The settings on record: pH 10.1.
Data set [7] is described as follows: method code SF-RC, from DOI: 10.1021/jm300199g, PMID: 22540974. The settings on record: pH 7.4.
A short description of data set [8]: method code SF, from DOI: 10.1021/jm0201114, PMID: 12238930. The following applies: pH 7.4.
Assay in data set [9]: not given
The source holds these as a separate data set.

Assay in data set [10]: not given
The source holds these as a separate data set.

Data set [11] is described as follows: method code SF-RC, from DOI: 10.1016/0969-8051(94)00118-4, PMID: 7550031. The following applies: pH 7.4.
The nature of data set [12]: method code SF-RC, from DOI: 10.1002/jlcr.3310, PMID: 26094722. The following applies: pH 7.4.
Data set [13] is described as follows: method code SF-RC, from DOI: 10.1002/jlcr.3404, PMID: 27126914. The following applies: pH 7.4.
A short description of data set [14]: method code SF-RC, from DOI: 10.1023/a:1015825912542, PMID: 1808606. The following applies: pH 7.2.
A short description of data set [15]: method code SF-AS, from DOI: 10.1016/s0021-9673(03)00617-4, PMID: 12830921.
The nature of data set [16]: method code SF-AS, from PMID: 474167.
Data set [17] can be described thus: method code SF-HPLC, from DOI: 10.1016/j.ejps.2016.07.010, PMID: 27422078. The settings on record: pH 7.4.
Data set [18] can be described thus: method code SF-AS, from DOI: 10.1016/j.ejmech.2015.02.036, PMID: 25728022. The following applies: pH 7.4.
A short description of data set [19]: method code SF-AS, from DOI: 10.1016/0147-6513(87)90041-8, PMID: 3830021.
Data set [20] is described as follows: method code SF, from DOI: 10.1021/bi00418a003, PMID: 3196678.
Data set [21] in a line: method code SF-AS, from DOI: 10.1016/j.ejmech.2010.07.027, PMID: 20705371.
Data set [22] in a line: method code SF-HPLC, from PMID: 4074422. The following applies: pH 7.0.
Assay in data set [23]: not given
This is another data set of the same source.

Assay in data set [24]: not given
The source holds these as a separate data set.

The nature of data set [25]: method code SF-HPLC, from DOI: 10.1016/j.ejpb.2012.03.006, PMID: 22469554.
Data set [26] is described as follows: from Xu, W.; Sun, J.; Zhang, T.; Ma, B.; Chen, D.; He, Z. (2007). Determination of equilibrium solubility of oridonin and its apparent oil-water partition coefficient by HPLC. Journal of Shenyang ….
Data set [27] is described as follows: method code SF-HPLC, from DOI: 10.1002/ps.2780290114.
Data set [28] is described as follows: method code SF-HPLC, from DOI: 10.1002/jps.2600830510, PMID: 8071813.
A short description of data set [29]: method code SF-HPLC, from DOI: 10.1021/jf0483669, PMID: 15913295. The following applies: pH 7.4.
Data set [30] can be described thus: method code SF-AS, from DOI: 10.1002/chin.197711219. The following applies: pH 7.4.
Assay in data set [31]: not given
This is another data set of the same source.

Assay in data set [32]: not given
This is another data set of the same source.

Assay in data set [33]: not given
The source holds these as a separate data set.

Data set [34] is described as follows: method code pH-metric titration, from DOI: 10.1002/(sici)1096-9063(199607)47:3<265::aid-ps416>3.0.co;2-f.
Assay in data set [35]: not given
The source holds these as a separate data set.

Data set [36] is described as follows: method code SF-AS, from DOI: 10.1016/j.bmcl.2014.05.029, PMID: 24930836.
A short description of data set [37]: method code SF-HPLC, from DOI: 10.1023/a:1015837931256, PMID: 1788153. The settings on record: pH 7.4.
The nature of data set [38]: method code SF, from DOI: 10.1021/jm4003632, PMID: 23662903. The following applies: pH 7.4.

Non-standard residues stand in square brackets, D forms with d. Residues, ends and D or L forms follow the SMILES beside them.

As to `CN(C)c1ccc(N=Nc2nc3ccc(OCCOCCOCCF)cc3s2)cc1`, in data set [1], the logD – broadly, the decadic logarithm of the distribution of all forms, ionised or not, between an organic phase and buffer at a given pH – is 2.05.
Take `COc1cc(C)c(/C=C/C(C)=C/C=C/C(C)=C/C(=O)O)c(C)c1C`: the logP – broadly, the decadic logarithm of the partition coefficient of the neutral form, usually between octanol and water – in data set [2] turned out to be 6.4.
On to `CC1C2CCC3C(O)C2(CC(O)C2(O)C1CC(O)C2(C)C)CC3(C)O` (centres undefined), for which, in data set [3], the logP was determined as 1.51.
Consider `CCCCCCN1C(=O)NC(c2ccccc2)(c2ccccc2)C1=O`, for which the logP amounted to 4.39.
Take `CC(C)Cc1ccc(C(C)C(=O)Oc2ccccc2C(N)=O)cc1` (centres undefined): in data set [4], the logD is 1.54.
On to `c1ccc2nc3c4ccccc4c4ccccc4c3cc2c1`, for which the logP in data set [5] is 5.66.
In [6], `COc1ccccc1N1CCN(CCCNc2cc(=O)n(C)c(=O)n2C)CC1` registered a logD of 1.6.
On to `CC(C)[C@H](C(=O)NO)N(Cc1ccccc1)S(=O)(=O)c1ccc(OCCF)cc1`, for which the logD in [7] was determined as 2.02.
In data set [8], `COc1cc2ncnc(N3CCN(C(=S)NCCc4ccco4)CC3)c2cc1OC` showed a logD of 2.75.
`CCN(CC)C(=O)Cc1c(-c2ccc(OC)cc2)nn2c(C)cc(C)nc12`: in data set [9], the logP was found to be 2.44.
The molecule `COc1cc2c(cc1OC)C1Cc3ccc(OC)c(OC)c3CN1CC2` (centres undefined) yielded a logP in [10] of 2.6.
The molecule `COc1cc2c(cc1OC)C1CC(O)(C=CI)C(CC(C)C)CN1CC2` (centres undefined) gave a logD in data set [11] of 3.24.
Molecule `CC(C)(C)n1ncc(OCc2cccc(Cn3cc(CCF)nn3)c2)c(Cl)c1=O` returned a logD in data set [12] of 2.54.
`Cn1cc(C2=C(c3coc4ccccc34)C(=O)NC2=O)c2cc(I)ccc21`: the logD in [13] came out at 3.18.
For `CC(=O)N[C@H](Cc1ccccc1)C(=O)N[C@H](Cc1ccccc1)C(N)=O` (Ac-[dF]-[dF]-NH2), the logD in [14] was found to be 1.19.
In turn, `CCC12CCCN3CCc4c(n(c5ccccc45)C(O)(C(=O)OC)C1)C32` (centres undefined) displayed a logP in data set [15] of 2.96.
In turn, `CC(=O)[C@@]1(O)CC[C@H]2[C@@H]3CCC4=CC(=O)CC[C@]4(C)[C@H]3CC[C@@]21C` registered a logP in data set [16] of 3.19.
`Cc1cc(=O)c2c(O)cc(O)c(C3CCN(C)CC3OC(=O)C(C)(C)C)c2o1` (centres undefined): the logD in [17] was found to be 1.66.
`C=CCn1c(C)nc2cc(Nc3nc(N4CCOCC4)nc4[nH]cnc34)ccc21` returned a logD in data set [18] of 1.59.
Consider `COC(=O)CCN(CCC(=O)OC)c1ccc(/N=N/c2c(Cl)cc([N+](=O)[O-])cc2Br)cc1`, for which the logP in [19] was 4.1.
Molecule `C[C@]12CC[C@@H]3c4ccc(CCCO)cc4CC[C@H]3[C@@H]1CC[C@@H]2O` had a logP in [20] of 2.7.
Consider `CC(C)(C)c1cc(CN2CCOCC2)c(O)c(CN2CCOCC2)c1`, for which, in data set [21], the logP was 2.03.
In data set [22], `O=C1CCc2cc(OCCCCc3nnnn3C3CCCCC3)ccc2N1` displayed a logD of 2.76.
Consider `CC[C@H]1C[C@]2(C)[C@@H](O)CC[C@H]2[C@@H]2CCc3cc(O)ccc3[C@@H]12`, for which, in [23], the logP amounted to 3.8.
Consider `O=C(CN1C(=O)c2ccccc2C1=O)N1CCN(Cc2ccc(I)cc2)CC1`, for which, in data set [24], the logP is 3.6.
Turning to `O=C(CCCCCCCC(=O)Oc1ccc(O)cc1)Oc1ccc(O)cc1`, the logP in data set [25] worked out at 4.99.
Consider `C=C1C(=O)[C@]23C(O)C1CC[C@H]2[C@@]12CO[C@]3(O)C(O)[C@@H]1C(C)(C)CCC2O` (some centres undefined), for which the logP in [26] is 1.66.
Turning to `CCCCS/C(=N\c1cccnc1)SCc1ccc(C(C)(C)C)cc1`, the logP in [27] was determined as 7.
For the molecule `O=C(OCCCN1CCOCC1)c1ccccc1Nc1c(Cl)cccc1Cl`, in data set [28], the logP came out at 2.81.
The molecule `O=c1c(-c2ccc(O)cc2)coc2cc(O[C@@H]3O[C@H](CO)[C@@H](O)[C@H](O)[C@H]3O)cc(O)c12` showed a logD in [29] of 0.97.
`O=C1C(=C2C=CN(CCN3CCOCC3)C=C2)C(=O)c2ccccc21` returned a logD in [30] of 2.01.
In turn, `O=C(O)c1[nH]c2cc(Cl)cc(Cl)c2c1CN1CC(=O)N(c2cccc(OCCF)c2)C1=O` came in with a logP in data set [31] of 2.16.
Regarding `O=C(NC1CCCCCCC1)NS(=O)(=O)c1cnccc1Nc1cccc(C(F)(F)F)c1`, the logP in data set [32] stood at 2.29.
In data set [33], `CC(=O)C1=C(O)C2C3c4c[nH]c5cccc(c45)CC3C(C)(C)N2C1=O` (centres undefined) registered a logP of 3.83.
On to `CCO/N=C(\CC)C1=C(O)CC(c2c(C)cc(C)cc2C)CC1=O` (centres undefined), for which the logP in data set [34] is 4.46.
In data set [35], `COc1cc2c(N)nc(N3CCN(C(=O)OCC(C)(C)O)CC3)nc2c(OC)c1OC` showed a logP of 1.3.
Turning to `Cc1cc(=O)oc2cc(OCC(O)Cn3cncn3)cc(OCC(O)Cn3cncn3)c12` (centres undefined), in [36], the logP amounted to 0.65.
The molecule `Nc1nc2c(ncn2COCCOC(=O)c2ccc(CN3CCOCC3)cc2)c(=O)[nH]1` had a logD in data set [37] of -0.05.
As to `CC(C)n1ncnc1-c1nc2c(s1)CCOc1cc(-c3cnn(CCO)c3)ccc1-2`, the logD in [38] was found to be 3.9.
